According to patent publication US5733908A, “Tetracyclic 1,4-oxazine compounds” (Adir Et Compagnie, priority 1995, dated 1998):

Test system: male Wistar rats, hypothermia induced by the D3 dopaminergic agonist 7-OH-DPAT
Assay: Hypothermia in the rat induced by the D3 agonist 7-OH-DPAT (reversal test)
Type: in vivo
Settings: for ΔT°C. (rectal temperature vs base values): measured 30 min after, mean ± sem, n ≥ 5
Source text: That selectivity makes the compounds of the present invention valuable especially for use as medicaments that act on the dopaminergic system without causing the undesirable effects of D2 ligands.
In vivo: by the capacity of the products of the invention to modulate hypothermia induced in the rat by the D3 dopaminergic agonist: 7-OH-DPAT.
1.2 In vivo - Hypothermia in the rat
The tests were carded out on male Wistar rats weighing 200-250 g placed in individual cages with free access to food and water. The products were dissolved in distilled water to which several drops of lactic acid are added. The injections were effected in a volume of 1.0 ml/kg by the subcutaneous route. The doses are expressed in terms of the base. The rectal temperature of the rats was recorded using a digital thermistoprobe (Millan et al, I.P.E.T., 1993, 264, p. 1364-1376). During a first period, the rats were injected with the compound to be tested or the carrier, and were then put back in their cages for 30 minutes. The rats were then given an injection of 7-OH-DPAT (0.16 mg/kg) and were placed in their cages again. Thirty minutes later, the rectal temperature was measured and the difference was determined by comparison with the base values (.increment.T° C.). The inhibitory dose (95 % confidence limits) for reducing the effect of the 7-OH-DPAT by 50 % was calculated according to the Finney method (Statistical Method in Biological Assays, 2nd ed., Hafner Publishing, New York, 1964).

SMILES | ED50 (Rattus norvegicus, sc, 7-OH-DPAT 0.16 mg/kg, Finney method, 95 % confidence limits in brackets, read-out: inhibitory dose (ID50) (95 % C.L.) for reducing the effect of 7-OH-DPAT by 50 %) | ΔT°C. (rectal temperature vs base values) (injection 1: product 0.16 mg/kg s.c., injection 2: 7-OH-DPAT 0.16 mg/kg 30 min later) | ΔT°C. (rectal temperature vs base values) (injection 1: carrier, injection 2: 7-OH-DPAT 0.16 mg/kg s.c.)
CCCN1CCO[C@@H]2c3cc4c(cc3CC[C@H]21)CCS4 (relative stereo) [Example 2, Trans-3,4,4a,5,6,8,9,11b-octahydrothieno[2,3-b]-1,4-oxazino[3,2-h]-4-propyl-2H-naphthalene] | 0.41 mg/kg | -1.48 ± 0.44 °C | –
CCCN(CCC)C1CCc2ccc(O)cc2C1 (stereo not drawn) [Example 7-OH-DPAT, reference compound] | – | – | -1.66 ± 0.07 °C
